Assay results taken from the supplement of paper PMC12137928.
Where a name gives a salt, the structure may show the parent alone.

Test system: HCT116
Conditions: 72 h
Outline: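 Each well of the 1536-well plates received 250 HCT116 cells, which attached over 5 h. Luminescence was measured with CellTiter-Glo, scaled with vehicle as 0% and positive control as -100%, and pattern-corrected. A four-parameter Hill fit yielded IC50 and maximal efficacy.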

| Compound | IC50 cell viability (ICRF193 0 nM) [µM] | IC50 cell viability (ICRF193 200 nM) [µM] |
| --- | --- | --- |
| CCC[C@H](N[C@@H](C)C(=O)N1[C@H](C(=O)O)C[C@@H]2CCCC[C@@H]21)C(=O)OCC [Perindopril] | > 45.8 | > 45.8 |
| OC(CN1CCCCC1)c1cc(-c2ccccc2)on1 (configuration not stated) [Perisoxal citrate] | > 45.8 | > 45.8 |
| CN1CCN(C2=Nc3ccccc3Cc3ccccc32)CC1 [Perlapine] | > 45.8 | > 45.8 |
| CCOc1ccc(/N=C(\C)Nc2ccc(OCC)cc2)cc1 [Phenacaine hydrochloride] | > 45.8 | > 45.8 |
| NC(=O)NC(=O)Cc1ccccc1 [Phenacemide] | > 45.8 | > 45.8 |
| CCOc1ccc(NC(C)=O)cc1 [Phenacetin] | > 45.8 | > 45.8 |
| Nc1ccc(/N=N/c2ccccc2)c(N)n1 [Phenazopyridine hydrochloride] | > 45.8 | > 45.8 |
| NNCCc1ccccc1 [Phenelzine] | > 45.8 | > 45.8 |
| CC(Oc1ccccc1)C(=O)N[C@@H]1C(=O)N2[C@@H]1SC(C)(C)[C@@H]2C(=O)O (some centres not stated) [Phenethicillin potassium salt] | > 45.8 | > 45.8 |
| O=C1c2ccccc2C(=O)C1c1ccccc1 [Phenindione] | > 45.8 | > 45.8 |
| CN(C)CCC(c1ccccc1)c1ccccn1 (configuration not stated) [Pheniramine maleate] | > 45.8 | > 45.8 |
| O=S1(=O)OC(c2ccc(O)cc2)(c2ccc(O)cc2)c2ccccc21 [Phenol red] | > 45.8 | > 45.8 |
| Oc1ccccc1 [Phenol] | > 45.8 | > 45.8 |
| O=C1OC(c2ccc(O)cc2)(c2ccc(O)cc2)c2ccccc21 [Phenolphthalein] | > 45.8 | > 45.8 |
| O=C(O)c1ccccc1C(c1ccc(O)cc1)c1ccc(O)cc1 [Phenolphthalin] | > 45.8 | > 45.8 |
| c1ccc2c(c1)Nc1ccccc1S2 [Phenothiazine] | > 45.8 | > 45.8 |
| CC(C)=CC1C(C(=O)OCc2cccc(Oc3ccccc3)c2)C1(C)C (configuration not stated) [Phenothrin] | > 45.8 | > 45.8 |
| O=C(O)COc1ccccc1 [Phenoxyacetic acid] | > 45.8 | > 45.8 |
| CC(COc1ccccc1)N(CCCl)Cc1ccccc1 (configuration not stated) [Phenoxybenzamine hydrochloride] | > 45.8 | > 45.8 |
| NC(=O)OCCCc1ccccc1 [Phenprobamate] | > 45.8 | > 45.8 |
| CCC(c1ccccc1)c1c(O)c2ccccc2oc1=O (configuration not stated) [Phenprocoumon] | > 45.8 | > 45.8 |
| CN1C(=O)CC(c2ccccc2)C1=O (configuration not stated) [Phensuximide] | > 45.8 | > 45.8 |

| Compound | IC50 cell viability (ICRF193 0 nM) [µM] | IC50 cell viability (ICRF193 200 nM) [µM] |
| --- | --- | --- |
| Cc1ccc(N(CC2=NCCN2)c2cccc(O)c2)cc1 [Phentolamine mesilate] | > 45.8 | > 45.8 |
| Nc1ccc(C(=O)Oc2ccccc2)c(O)c1 [Phenyl 4-aminosalicylate] | > 45.8 | > 45.8 |
| O=C(CCCCCCCCC#CI)Oc1ccccc1 [Phenyl 11-iodo-10-undecynoate] | > 45.8 | > 45.8 |
| O=C(Oc1ccccc1)c1ccccc1O [Phenyl salicylate] | > 45.8 | > 45.8 |
| O=C(O)Cc1ccccc1 [Phenylacetic acid] | > 45.8 | > 45.8 |
| CC(=O)N(CC(=O)N(C)C)c1ccccc1 [Phenylacetylglycine dimethylamide] | > 45.8 | > 45.8 |
| CNC[C@H](O)c1cccc(O)c1 [Phenylephrine hydrochloride] | > 45.8 | > 45.8 |
| CC(N)C(O)c1ccccc1 (configuration not stated) [Phenylpropanolamine hydrochloride] | > 45.8 | > 45.8 |
| CN(C)CCOc1ccccc1Cc1ccccc1 [Phenyltoloxamine citrate] | > 45.8 | > 45.8 |
| O=C(CCc1ccc(O)cc1)c1c(O)cc(O)cc1O[C@@H]1O[C@H](CO)[C@@H](O)[C@H](O)[C@H]1O [Phlorizin] | > 45.8 | > 45.8 |
| COP(=S)(OC)SCN1C(=O)c2ccccc2C1=O [Phosmet] | > 45.8 | > 45.8 |
| C#CC(C)(CC)OC(=O)c1ccccc1C(=O)O (configuration not stated) [Phthalofyne] | > 45.8 | > 45.8 |
| CCCCCCCCCCCCCCCC(=O)O[C@@H]1CC(C)=C(/C=C/C(C)=C/C=C/C(C)=C/C=C/C=C(C)/C=C/C=C(C)/C=C/C2=C(C)C[C@@H](OC(=O)CCCCCCCCCCCCCCC)CC2(C)C)C(C)(C)C1 [Physalien] | > 45.8 | > 45.8 |
| CNC(=O)Oc1ccc2c(c1)[C@]1(C)CCN(C)[C@@H]1N2C [Physostigmine] | > 45.8 | > 45.8 |
| O=P(O)(O)O[C@H]1[C@H](OP(=O)(O)O)[C@@H](OP(=O)(O)O)[C@H](OP(=O)(O)O)[C@@H](OP(=O)(O)O)[C@H]1OP(=O)(O)O [Phytic acid] | > 45.8 | > 45.8 |
| CC1=C(C/C=C(\C)CCC[C@H](C)CCC[C@H](C)CCCC(C)C)C(=O)c2ccccc2C1=O [Phytonadione] | > 45.8 | > 45.8 |
| Nc1c(NC/C=C\COc2cc(CN3CCCCC3)ccn2)c(=O)c1=O [Pibutidine] | > 45.8 | > 45.8 |
| O=C(O)c1ccccn1 [Picolinic acid] | > 45.8 | > 45.8 |
| O=S(=O)(O)Oc1ccc(C(c2ccc(OS(=O)(=O)O)cc2)c2ccccn2)cc1 [Picosulfate sodium] | > 45.8 | > 45.8 |
| CC[C@@H]1C(=O)OC[C@@H]1Cc1cncn1C [Pilocarpine] | > 45.8 | > 45.8 |
| Cc1cccc(C)c1NC(=O)CC12CCCN1CCC2 [Pilsicainide] | > 45.8 | > 45.8 |
| C[C@@H]1C/C=C/C=C/C=C/C=C/[C@H](O[C@@H]2O[C@H](C)[C@@H](O)[C@H](N)[C@@H]2O)C[C@@H]2O[C@](O)(C[C@@H](O)C[C@H]3O[C@@H]3/C=C/C(=O)O1)C[C@H](O)[C@H]2C(=O)O [Pimaricin] | > 45.8 | > 45.8 |

| Compound | IC50 cell viability (ICRF193 0 nM) [µM] | IC50 cell viability (ICRF193 200 nM) [µM] |
| --- | --- | --- |
| COc1ccc(-c2nc3cc(C4=NNC(=O)CC4C)ccc3[nH]2)cc1 (configuration not stated) [Pimobendan] | > 45.8 | > 45.8 |
| CC(C)NCC(O)COc1cccc2[nH]ccc12 (configuration not stated) [Pindolol] | > 45.8 | > 45.8 |
| CCc1ccc(CCOc2ccc(CC3SC(=O)NC3=O)cc2)nc1 (configuration not stated) [Pioglitazone hydrochloride] | > 45.8 | > 45.8 |
| NC(=O)C1(N2CCCCC2)CCN(CCCC(=O)c2ccc(F)cc2)CC1 [Pipamperone dihydrochloride] | > 45.8 | > 45.8 |
| CC(=O)O[C@H]1C[C@@H]2CC[C@@H]3[C@H](CC[C@@]4(C)[C@H]3C[C@H](N3CC[N+](C)(C)CC3)[C@@H]4OC(C)=O)[C@@]2(C)C[C@@H]1N1CC[N+](C)(C)CC1 [Pipecuronium bromide] | > 45.8 | > 45.8 |
| CCn1cc(C(=O)O)c(=O)c2cnc(N3CCNCC3)nc21 [Pipemidic acid] | > 45.8 | > 45.8 |
| CCN1CCN(C(=O)N[C@@H](C(=O)N[C@@H]2C(=O)N3[C@@H]2SC(C)(C)[C@@H]3C(=O)O)c2ccccc2)C(=O)C1=O [Piperacillin sodium salt] | > 45.8 | > 45.8 |
| C1CNCCN1 [Piperazine] | > 45.8 | > 45.8 |
| CCN1CCCC(OC(=O)C(c2ccccc2)c2ccccc2)C1 (configuration not stated) [Piperidolate hydrochloride] | > 45.8 | > 45.8 |
| O=C(OCCN1CCCCC1)C(O)(c1ccccc1)c1ccccc1 [Piperilate hydrochloride] | > 45.8 | > 45.8 |
| CC1CCCCN1CCCOC(=O)c1ccccc1 (configuration not stated) [Piperocaine hydrochloride] | > 45.8 | > 45.8 |
| CCCCOCCOCCOCc1cc2c(cc1CCC)OCO2 [Piperonyl butoxide] | > 45.8 | > 45.8 |
| O=C(CCBr)N1CCN(C(=O)CCBr)CC1 [Pipobroman] | > 45.8 | > 45.8 |
| CCCCCCCCCCCCCCCC(=O)OCCC1CCN(CCCN2c3ccccc3Sc3ccc(S(=O)(=O)N(C)C)cc32)CC1 [Pipothiazine palmitate] | > 45.8 | > 45.8 |
| NC(=O)CN1CCCC1=O [Piracetam] | > 45.8 | > 45.8 |
| CC(C)(C)NCC(O)c1ccc(O)c(CO)n1 (configuration not stated) [Pirbuterol hydrochloride] | > 45.8 | > 45.8 |
| O=C(O)c1cc(O)c2c3nc4ccccc4oc-3cc(=O)c2n1 [Pirenoxine Sodium] | > 45.8 | > 45.8 |
| CN1CCN(CC(=O)N2c3ccccc3C(=O)Nc3cccnc32)CC1 [Pirenzepine] | > 45.8 | > 45.8 |
| NS(=O)(=O)c1cc(C(=O)O)cc(N2CCCC2)c1Oc1ccccc1 [Piretanide] | > 45.8 | > 45.8 |
| Cc1ccc(=O)n(-c2ccccc2)c1 [Pirfenidone] | > 45.8 | > 45.8 |
| CC[C@@H]1CCN[C@H](C(=O)N[C@@H]([C@H]2O[C@H](SC)[C@H](O)[C@@H](O)[C@H]2O)[C@H](C)Cl)C1 [Pirlimycin Hydrochloride] | > 45.8 | > 45.8 |
| CC1CCCC(C)N1CCCC(O)(c1ccccc1)c1ccccn1 (configuration not stated) [Pirmenol] | > 45.8 | > 45.8 |
